# Columns and labels:
# [1] = system: LIX125, a hepatocellular carcinoma patient derived xenograft (PDX) model; assay: LIX125 PDX xenograft in vivo study, antitumor activity; details: 32 days
# Description: The human primary hepatocellular model LIX125 from ChemPartner (shangpharma.com) was implanted into the female severe combined immunodeficiency (SCID) mice. When the tumors developed in mice, they were sacrificed and the resected tumors were implanted into female NU/NU mice for tumor preservation, histological diagnosis and in vivo efficacy study. Solid tumor tissues were depleted of necrotic components, cut into 10-15 mg pieces and mixed. Three to five pieces were mixed with […] Matrigel and implanted into a flank of 6-8 week old female NU/NU immune compromised mice weighing 18-20 g. All of the primary tumors utilized in this study had undergone 3 to 5 passages in vivo and the tumor histology of each was maintained over the serial transplantation.
# When the mean tumor volume (TV) reached approximately 170 mm^3 (10 days after implantation), mice were selected based on their TVs, and were sorted into multiple treatment groups with 8 animals per group. Per os (PO) treatment with Compound 1 (300 mg/kg for Hep3B and 500 mg/kg for LIX125) alone or in combination with lenvatinib vehicle (control) or lenvatinib (10 mg/kg or 3 mg/kg) administered once daily (QD). […]
# The administration volume (0.1 mL/10 g body weight) was calculated from the individual mouse body weight (BW) before administration. Body weights were measured daily and tumor measurements were performed twice weekly. […]
# The tumor volume (TV) in mm^3 was calculated according to the following formula: TV=length×width^2×0.5 length: largest diameter of tumor (mm) width: diameter perpendicular to length (mm). The tumor growth inhibition % (TGI) was calculated according to the following formula: Tumor growth inhibition % (TGI)=[(Average control TV day X−Treatment TV day X)/(Average control TV day X)]×100, where day X is any day of the treatment. […]
# Data represent the mean±SEM for tumor volume (N=8). The differences in TV between groups were analyzed by multiple unpaired t-tests with significance determined using the Holm-Sidak method. […]
# [2] = system: Hep3B xenograft (human hepatocellular cancer cell line); assay: Hep3B cells xenograft in vivo study, antitumor activity; parameters: species or system BALB/c nu/nu female mice; details: for Tumor growth inhibition % (TGI): 53 days
# Description: The cell line used, Hep3B (also called HEP3B.1-7), was sourced from American Type Culture Collection (ATCC), verified free of […] contamination and verified for identity by short tandem repeat analysis of 9 markers.
# For the human hepatocellular cancer cell line Hep3B xenografts, Hep3B cells were cultured in RPMI1640 medium containing 10% FBS at 37° C. in a 5% CO2 atmosphere and kept in exponential growth phase. For harvesting, the cells were washed with PBS, incubated with 0.25% trypsin-EDTA, and suspended in a 1:1 mixture of RPMI1640 medium containing 10% FBS. To prepare the inoculum at a final concentration of 5×10^7 cells/mL, the cell were spun and resuspended in RPMI1640 and Matrigel (Corning). To generate xenografts, 0.1-mL of the inoculum was injected subcutaneously into the right flank region of BALB/c nu/nu female mice, approximately 8-week-old, weighing 18-20 g, giving a final concentration of 5×10^6 cells/mouse.
# When the mean tumor volume (TV) reached approximately 170 mm^3 (10 days after implantation), mice were selected based on their TVs, and were sorted into multiple treatment groups with 8 animals per group. Per os (PO) treatment with Compound 1 (300 mg/kg for Hep3B and 500 mg/kg for LIX125) alone or in combination with lenvatinib vehicle (control) or lenvatinib (10 mg/kg or 3 mg/kg) administered once daily (QD). Additional groups included treatment with lenvatinib (10 mg/kg or 3 mg/kg) in combination with Compound 1 vehicle. (Lenvatinib vehicle includes the vehicle in which lenvatinib is administered; but, without any lenvatinib. Likewise, Compound 1 vehicle includes the vehicle in which Compound 1 is administered; but, without any Compound 1.)
# The administration volume (0.1 mL/10 g body weight) was calculated from the individual mouse body weight (BW) before administration. Body weights were measured daily and tumor measurements were performed twice weekly. Mice with >20% body weight loss compared with their day 1 body weight or bearing tumors with the longest diameter […] were immediately euthanized to prevent any pain or suffering for the animal.
# The tumor volume (TV) in mm^3 was calculated according to the following formula: TV=length×width^2×0.5 length: largest diameter of tumor (mm) width: diameter perpendicular to length (mm). The tumor growth inhibition % (TGI) was calculated according to the following formula: Tumor growth inhibition % (TGI)=[(Average control TV day X−Treatment TV day X)/(Average control TV day X)]×100, where day X is any day of the treatment. The antitumor effects of the treatment, partial regression (PR) and complete regression (CR), stable disease (SD), and progressive disease (PD) were defined as follows: […]
# PD: 3 consecutive measurements >120% of starting volume or 3 consecutive increasing measurements from best response; SD: 3 consecutive measurements >50% and <120% of starting volume; PR: 3 consecutive measurements <50% of starting volume; CR: 3 consecutive measurements <30 mm^3.
# Data represent the mean±SEM for tumor volume (N=8). The differences in TV between groups were analyzed by multiple unpaired t-tests with significance determined using the Holm-Sidak method. Statistical analyses were performed using the GraphPad Prism version 7 (GraphPad Software, La Jolla, CA).
# To determine whether lenvatinib enhances tumor growth inhibition (TGI) exerted by Compound 1, the Hep3B cell line was grown as a xenograft in female nude immunocompromised mice. Tumor bearing mice were orally treated daily for 53 days with (a) 300 mg/kg Compound 1 as single agent with lenvatinib vehicle; (b)(i) 10 mg/kg lenvatinib as a single agent with Compound 1 vehicle; (b)(ii) 3 mg/kg lenvatinib as a single agent with Compound 1 vehicle; (c)(i) 300 mg/kg Compound 1 and 10 mg/kg lenvatinib in combination; or (c)(ii) 300 mg/kg Compound 1 and 3 mg/kg lenvatinib in combination.
Compound,"Tumor growth inhibition % (TGI) ([1]; Compound 1 500 mg/kg PO QD single agent, vs vehicle controls p>0.05) [%]","Tumor growth inhibition % (TGI) ([2]; Compound 1 300 mg/kg PO QD single agent with lenvatinib vehicle, vs vehicle control P<0.00001) [%]","animals with progressive disease (PD) ([2]; Compound 1 300 mg/kg single agent, PD: 3 consecutive measurements >120% of starting volume or 3 consecutive increasing measurements from best response)","Tumor growth inhibition % (TGI) ([1]; lenvatinib 3 mg/kg PO QD single agent, vs vehicle control p>0.05) [%]","Tumor growth inhibition % (TGI) ([1]; lenvatinib 10 mg/kg PO QD single agent, vs vehicle control p<0.0007) [%]","Tumor growth inhibition % (TGI) ([2]; lenvatinib 3 mg/kg PO QD single agent with Compound 1 vehicle, vs vehicle controls P>0.05) [%]",animals with progressive disease (PD) ([2]; lenvatinib 3 mg/kg single agent),"Tumor growth inhibition % (TGI) ([2]; lenvatinib 10 mg/kg PO QD single agent with Compound 1 vehicle, vs vehicle controls P<0.00005) [%]",animals with progressive disease (PD) ([2]; lenvatinib 10 mg/kg single agent)
"C=CC(=O)Nc1cc(N2CCN(CC)CC2)ccc1Nc1cc(N(C)C(=O)Nc2c(Cl)c(OC)cc(OC)c2Cl)ncn1 [Compound 1, N-(2-((6-(3-(2,6-dichloro-3,5-dimethoxyphenyl)-1-methylureido)pyrimidin-4-yl)amino)-5-(4-ethylpiperazin-1-yl)phenyl)acrylamide]",60,81,6/8,–,–,–,–,–,–
"COc1cc2nccc(Oc3ccc(NC(=O)NC4CC4)c(Cl)c3)c2cc1C(N)=O [Lenvatinib, 4-[3-chloro-4-(N′-cyclopropylureido)phenoxy]-7-methoxyquinoline-6-carboxamide]",–,–,–,44,72,23,8/8,58,8/8
